From patent US11524021B2, “Use of ginsenoside M1 for manufacturing medicament for treating oral cancer” (priority 2018, dated 2022)

Columns and labels:
Format in all cases: cell-based
[1] = test system: human oral cancer cells OECM-1; test: PI/Annexin V double staining assay by flow cytometry; settings: 24 h
Protocol: (§1) Human oral cancer cell line OECM-1 cells were incubated for 24 h with ginsenoside M1 (10˜20 μg/ml), 50 μM cistaplatin (CDDP) or vehicle (0.1% DMSO). (FIG. 3A) The apoptotic DNA breaks was assayed by terminal deoxynucleotidyl transferase dUTP nick end labeling (TUNEL) assay using flow cytometry. (FIG. 3B) The cell cycle distribution was determined by PI staining using flow cytometry. (FIG. 3C) The apoptosis level was measured by PI/Annexin V double staining assay using flow cytometry. (FIG. 3D) The activation levels of caspase-9 and caspase-3 were measured by detecting the degradation of pro-caspase-9 and pro-caspase-3 using Western blotting. […] (One-way ANOVA with Dunnett's multiple comparisons test).
(§2) To gain further insight into the mode of action of ginsenoside M1, three assays targeting hallmarks of apoptosis, namely (1) the apoptotic DNA breaks assayed by terminal deoxynucleotidyl transferase dUTP nick end labeling (TUNEL) assay, (2) the cell cycle assayed by flow cytometry after propidium iodide (PI)-staining nuclei, (3) the PI/Annexin V double staining assay, and (4) caspase activation were performed. Plate 1×10^6 human oral cancer cells OECM-1 per 6-cm dish in 2 ml of culture medium and were grown overnight at 37° C. in a 5% CO2 incubator. The cells were incubated for 24 h with ginsenoside M1 (10˜20 μg/ml), 50 μM cistaplatin (CDDP) or vehicle. Each group contains a final DMSO concentration of 0.1%. Thereafter, three assays were performed. […] The cells in sub-G1 phase increased after treatment with ginsenoside M1 and CDDP. (FIG. 3B). […] The data were expressed as mean±SD; n=3. ** and *** indicate a significant difference at the level of p<0.01 and p<0.001, respectively, compared to vehicle-control cells. (One-way ANOVA with Dunnett's multiple comparisons test).

[2] = test system: human oral cancer SAS cells; test: Caspase-9 and caspase-3 activation, degradation of pro-caspases by Western blotting; settings: 10˜20 μg/ml, 24 h
[3] = test system: human oral cancer OECM-1 cells; test: Migration of OECM-1 cells, wound healing assay; settings: 18 h
Protocol: FIGS. 5A-5B show ginsenoside M1 reduced the migration ability of human oral cancer cells. Human oral cancer cell line SAS cells (FIG. 5A) or OECM-1 cells (FIG. 5B) were cultured in 6-cm dish until the cells reached 100% confluence forming a monolayer. A clear zone was created by scratching using a sterile 200-μl pipette tip. The cells were incubated for 24 h (SAS cells) or 18 h (OECM-1 cells) with ginsenoside M1 (5˜10 μg/ml) or (0.1% DMSO). The migration distance was measured and compared to the vehicle-control cells. The data were expressed as mean±SD; n=3. *** indicates a significant difference at the level of p<0.001, compared to vehicle-control cells. (One-way ANOVA with Dunnett's multiple comparisons test).
The cell migration ability was measured by wound healing assay. Plate 5×10^6 human oral cancer SAS cells or OECM-1 cells per 6-cm dish in 2 ml of culture medium and were grown overnight at 37° C. in a 5% CO2 incubator until the cells reached 100% confluence forming a monolayer. We used a sterile 200-μl pipette tip to create a scratched clear zone on the culture dish, and the wounds photographed by a phase contrast microscope as the baseline. […] The data were expressed as mean±SD; n=3. *** indicates a significant difference at the level of p<0.001, compared to vehicle-control cells. […]

[4] = test system: human oral cancer cells OECM-1; test: Cell cycle distribution, PI staining by flow cytometry; settings: 10˜20 μg/ml, 24 h
Protocol: as §1, §2

[5] = test system: human oral cancer cells OECM-1; test: Colony formation of OECM-1 cells; settings: 5˜20 μg/ml, 10 days
Protocol: (§3) FIGS. 4A-4B show ginsenoside M1 reduced the colony formation ability of human oral cancer cells. Human oral cancer cell line SAS cells (FIG. 4A) or OECM-1 cells (FIG. 4B) were incubated for 10 days with ginsenoside M1 (5˜20 μg/ml) or vehicle (0.1% DMSO). The cells were fixed in 4% ice-cold paraformaldehyde and stained with 0.1% crystal violet, and the colonies were counted. The data were expressed as mean±SD; n=4. * and *** indicate a significant difference at the level of p<0.05 and p<0.001, respectively, compared to vehicle-control cells. (One-way ANOVA with Dunnett's multiple comparisons test).
(§4) Plate 150 human oral cancer cells SAS or OECM-1 per 6-cm dish in 3 ml of culture medium and were grown overnight at 37° C. in a 5% CO2 incubator. The cells were incubated for 10 days with ginsenoside M1 (5˜20 μg/ml) or vehicle. The cells were changed for fresh medium containing the same concentration of ginsenoside M1 at day 5. The cells were fixed in 4% ice-cold paraformaldehyde for 15 min at […], and stained with 0.1% crystal violet 10 min at room temperature. […] The data were expressed as mean±SD; n=4. * and *** indicate a significant difference at the level of p<0.05 and p<0.001, respectively, compared to vehicle-control cells. (One-way ANOVA with Dunnett's multiple comparisons test).

[6] = test system: human oral cancer cells SAS; test: Colony formation of SAS cells; settings: 5˜20 μg/ml, 10 days
Protocol: as §3, §4

[7] = test system: human oral cancer cells SAS; test: Viability of human oral cancer SAS cells, Trypan blue exclusion; settings: 5˜20 μg/ml, 24 h
Protocol: Human oral cancer cell line SAS cells (FIG. 1A) or OECM-1 cells (FIG. 1B) were incubated for 24 h with ginsenoside M1 (5˜20 μg/ml), ginsenoside Rh2 (5˜20 μg/ml) or vehicle (0.1% DMSO). The live cell numbers were counted by Trypan blue exclusion method. The data were expressed as mean±SD; n=3. *, ** and *** indicate a significant difference at the level of p<0.05, p<0.01 and p<0.001, respectively, compared to vehicle-control cells. (One-way ANOVA with Dunnett's multiple comparisons test).
Plate 5×10^5 human oral cancer cells SAS per 6-cm dish in 2 ml of culture medium and were grown overnight at 37° C. in a 5% CO2 incubator. The cells were incubated for 24 h with ginsenoside M1 (5˜20 μg/ml), ginsenoside Rh2 (5˜20 μg/ml) or vehicle. Each group contains a final DMSO concentration of 0.1%. Thereafter, the cell numbers were counted by Trypan blue exclusion method. […] The data were expressed as mean±SD; n=3. *, ** and *** indicate a significant difference at the level of p<0.05, p<0.01 and p<0.001, respectively, compared to vehicle-control cells. (One-way ANOVA with Dunnett's multiple comparisons test).

CC(C)=CCC[C@](C)(O[C@@H]1OC(CO)[C@@H](O)[C@@H](O)C1O)[C@H]1CC[C@]2(C)C1[C@H](O)CC1[C@@]3(C)CC[C@H](O)C(C)(C)C3CC[C@]12C (stereo partly drawn) [ginsenoside M1, 20-O-β-D-glucopyranosyl-20(S)-protopanaxadiol]
percentage of OECM-1 cells with PI/Annexin V double positive staining ([1]; 10 μg/ml): not 10 μg/ml ginsenoside M1 significantly increased
percentage of OECM-1 cells with PI/Annexin V double positive staining ([1]; 20 μg/ml): significantly increased
precursor of caspase-3 (pro-caspase-3) level [2]: decrease of the precursors of caspase-3 and caspase-9 in a dose-dependent manner
precursor of caspase-9 (pro-caspase-9) level [2]: decrease of the precursors of caspase-3 and caspase-9 in a dose-dependent manner
migration ability of OECM-1 cells ([3]; 5 μg/ml): significantly inhibited
migration ability of OECM-1 cells ([3]; 10 μg/ml): significantly inhibited
cells in sub-G1 phase [4]: increased
cells in G1 phase ([4]; vs control cells): increased in a concentration-dependent manner
percentage of cells in S and G2/M phase ([4]; vs control cells): decreasing
colony formation ability of OECM-1 cells [5]: dose-dependently inhibited
colony formation ability of SAS cells [6]: dose-dependently inhibited
cell numbers of human oral cancer SAS cells [7]: dose-dependently inhibited
